# Source: patent US6720346B2, “Thiazole benzamide derivatives and pharmaceutical compositions for inhibiting cell proliferation” (Agouron Pharmaceuticals, Inc., priority 2001, dated 2004)
# Counter-ions that a name gives are not always drawn.
# Tests used:
# CDK2/cyclin A = biological target: T1, CDK2/cyclin A (Homo sapiens, UniProt P24941); assay: Inhibition of CDK2/cyclin A retinoblastoma kinase activity (Ki; % inhibition); assay type: biochemical; settings: for Ki: apparent Ki, CDK2/cyclin A, Rb substrate
# T1 construct: made in house; host or cells: CDK2: insect cells (baculovirus); cyclin A: E. coli
# In short: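 Apparent Ki values came from fitting concentration-dependent activity data to competitive (or competitive tight-binding) models, and % inhibition from single 30 nM screens of library compounds. Activity was measured as ³²P/³³P incorporation from 25 μM ATP into an Rb substrate by 10 or 19 nM CDK2/delta cyclin A at 30 °C over 60–75 min, pH 7.4.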
# human CDK4/cyclin D3 = biological target: T2, human CDK4/cyclin D3 (Homo sapiens, UniProt P11802); assay: Inhibition of CDK4/cyclin D retinoblastoma kinase activity (Ki; % inhibition); assay type: biochemical; settings: for Ki: apparent Ki, CDK4/cyclin D3, Rb substrate
# T2 construct: made in house; host or cells: insect cells co-infected with baculovirus vectors
# T2 sequence (P11802 whole entry): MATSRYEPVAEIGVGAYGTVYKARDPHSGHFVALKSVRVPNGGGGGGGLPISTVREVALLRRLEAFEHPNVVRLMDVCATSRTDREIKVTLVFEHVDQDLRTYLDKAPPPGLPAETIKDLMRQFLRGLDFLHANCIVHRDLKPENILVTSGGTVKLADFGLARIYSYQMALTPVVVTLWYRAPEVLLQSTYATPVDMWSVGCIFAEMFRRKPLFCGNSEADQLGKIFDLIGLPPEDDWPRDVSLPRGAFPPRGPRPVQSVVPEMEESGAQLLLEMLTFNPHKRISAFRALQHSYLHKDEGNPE
# T2 sequence (P30281 1-264 partner limits assumed): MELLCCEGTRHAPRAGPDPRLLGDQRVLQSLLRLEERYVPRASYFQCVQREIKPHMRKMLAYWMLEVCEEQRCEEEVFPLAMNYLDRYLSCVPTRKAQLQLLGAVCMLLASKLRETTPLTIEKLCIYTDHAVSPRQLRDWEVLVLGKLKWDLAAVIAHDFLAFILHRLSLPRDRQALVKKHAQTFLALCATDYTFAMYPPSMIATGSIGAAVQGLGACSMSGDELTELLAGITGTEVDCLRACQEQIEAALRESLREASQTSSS
# In short: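 Radiometric filter-binding read-out: Rb residues 386-928 phosphorylated by 5 nM CDK4/cyclin D3(1-264) from baculovirus-infected insect cells, 25 μM ATP, HEPES pH 7.4, 30 °C. Run 20 min, or 60 min for tight-binding inhibitors. Screening at 30 nM theoretical compound; apparent Ki by competitive-inhibition fitting.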
# HCT-116 cell line = assay: Inhibition of cell growth, MTT tetrazolium salt assay; assay type: cell-based; settings: for IC50: Homo sapiens, HCT-116, 120 h, MTT, three to five days
# In short: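 Cells in McCoy's 5A medium were given 4 h before compound addition in 0.5% (v/v) DMSO, then incubated 3–5 days at 37 °C, 5% CO2. After 4 h with 0.2 mg/mL MTT, DMSO-solubilized formazan was read at 540 nm; 50% and 90% growth-inhibitory concentrations came from semi-log plots against vehicle controls.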
# [1] = HCT-116 cells, 0.25 μM compound
SMILES,CDK2 % Inhibition at 0.03 μM (CDK2/cyclin A; 0.03 μM compound) [%],CDK4 % Inhibition at 0.03 μM (human CDK4/cyclin D3; 0.03 μM compound) [%],"HCT-116 % Inhibition at 0.1 μM (HCT-116 cell line; HCT-116 cells, 0.1 μM compound) [%]",HCT-116 % Inhibition at 0.25 μM (HCT-116 cell line; [1]) [%],other results
COC(CN(C)C(=O)c1ccc(Nc2nc(N)c(C(=O)c3c(F)cccc3F)s2)cc1)OC [Example G19],–,–,–,–,"CDK2 % Inhibition at 0.03 μM (CDK2/cyclin A; at 0.03 μM): −7%; CDK4 % Inhibition at 0.03 μM (human CDK4/cyclin D3; at 0.03 μM): 4%; HCT-116 % Inhibition at 0.25 μM (HCT-116 cell line; HCT-116, at 0.25 μM): 43%"
Nc1nc(Nc2ccc(C(=O)N3CCC(CO)CC3)cc2)sc1C(=O)c1c(F)cccc1F [Example G390],−14,2,10,40,–
COc1ccc(OC)c(CCNC(=O)c2ccc(Nc3nc(N)c(C(=O)c4c(F)cccc4F)s3)cc2)c1 [Example G319],−5,14,17,54,–
Cc1ccc(CCNC(=O)c2ccc(Nc3nc(N)c(C(=O)c4c(F)cccc4F)s3)cc2)cc1 [Example G111],–,–,–,–,"CDK2 % Inhibition at 0.03 μM (CDK2/cyclin A; at 0.03 μM): 15%; CDK4 % Inhibition at 0.03 μM (human CDK4/cyclin D3; at 0.03 μM): 20%; HCT-116 % Inhibition at 0.1 μM (HCT-116 cell line; HCT-116, at 0.1 μM): 0%; HCT-116 % Inhibition at 0.25 μM (HCT-116 cell line; HCT-116, at 0.25 μM): 52%"
Nc1nc(Nc2ccc(C(=O)NC(CO)c3ccccc3)cc2)sc1C(=O)c1c(F)cccc1F (stereo not shown) [Example G155],–,–,–,–,"CDK2 % Inhibition at 0.03 μM (CDK2/cyclin A; at 0.03 μM): 32%; CDK4 % Inhibition at 0.03 μM (human CDK4/cyclin D3; at 0.03 μM): 38%; HCT-116 % Inhibition at 0.1 μM (HCT-116 cell line; HCT-116, at 0.1 μM): 0%; HCT-116 % Inhibition at 0.25 μM (HCT-116 cell line; HCT-116, at 0.25 μM, 0.25 µM): 67%"
Nc1nc(Nc2ccc(C(=O)Nc3ccccc3CO)cc2)sc1C(=O)c1c(F)cccc1F [Example G53],–,–,–,–,"CDK2 % Inhibition at 0.03 μM (CDK2/cyclin A; at 0.03 μM): 17%; CDK4 % Inhibition at 0.03 μM (human CDK4/cyclin D3; at 0.03 μM): 6%; HCT-116 % Inhibition at 0.25 μM (HCT-116 cell line; HCT-116, at 0.25 μM): 89%"
CCOc1ccccc1CNC(=O)c1ccc(Nc2nc(N)c(C(=O)c3c(F)cccc3F)s2)cc1 [Example G285],13,18,1,60,–
"C[C@H](CN1CCCCC1)NC(=O)c1ccc(Nc2nc(N)c(C(=O)c3c(F)cccc3F)s2)cc1 [Example A46, 4-[4-Amino-5-(2,6-difluoro-benzoyl)-thiazol-2-ylamino]-N-(1R-methyl-2-piperidin-1-yl-ethyl)-benzamide Trifluoroacetate Salt]",–,–,–,–,Ki (CDK2/cyclin A): 220 nM; Ki (human CDK4/cyclin D3): 15 nM; IC50 (HCT-116 cell line): 86 nM
COc1cc(CNC(=O)c2ccc(Nc3nc(N)c(C(=O)c4c(F)cccc4F)s3)cc2)cc(OC)c1 [Example G262],1,28,24,59,–
Nc1nc(Nc2ccc(C(=O)NCCc3ccccc3F)cc2)sc1C(=O)c1c(F)cccc1F [Example G206],13,19,13,58,–
CCCN(CCC#N)C(=O)c1ccc(Nc2nc(N)c(C(=O)c3c(F)cccc3F)s2)cc1 [Example G364],−12,9,20,40,–
CCN(CC)C(=O)C1CCCN(C(=O)c2ccc(Nc3nc(N)c(C(=O)c4c(F)cccc4F)s3)cc2)C1 (stereo not shown) [Example G224],16,28,10,53,–
Nc1nc(Nc2ccc(C(=O)NC3CCC(O)CC3)cc2)sc1C(=O)c1c(F)cccc1F (stereo not shown) [Example G346],11,11,15,52,–
"CC(C)(CNC(=O)c1ccc(Nc2nc(N)c(C(=O)c3c(F)cccc3F)s2)cc1)N1CCCCC1 [Example A52, 4-[4-Amino-5-(2,6-difluoro-benzoyl)-thiazol-2-ylamino]-N-(2-methyl-2-piperidin-1-yl-propyl)-benzamide]",–,–,–,–,Ki (CDK2/cyclin A): 170 nM; Ki (human CDK4/cyclin D3): 9 nM; IC50 (HCT-116 cell line): 130 nM
